Usually IC50 stands for the concentration needed to halve the response being measured. Low readings indicate greater potency, high ones weaker potency.

The target of this assay is Protein farnesyltransferase (Homo sapiens, UniProt P49354+P49356). The assay can be described thus: Inhibition of farnesyl transferase. The format is protein-complex assay.
For `CC1(c2cccc3ccccc23)C(=O)N(CCCn2ccnc2)C(=O)N1Cc1ccccc1CNS(C)(=O)=O` (stereo not drawn), half-maximal inhibition (IC50) was put at 0.5 µM. On to `CC1(c2cccc3ccccc23)NC(=O)N(CCCc2cnc[nH]2)C1=O` (stereo not drawn), for which 40 µM corresponded to half-maximal inhibition (IC50).

Molecule `CC1(c2cccc3ccccc23)C(=O)N(CCCn2ccnc2)C(=O)N1Cc1ccc(C(=O)O)cc1` (stereo not drawn) had an IC50 of 0.2 µM. As to `CSCC[C@H](NC(=O)CN1C(=O)N(Cc2c[nH]cn2)C(=O)C1(C)c1cccc2ccccc12)C(=O)O` (stereo partly drawn), the IC50 came to 61 µM. To `CC1(c2cccc3ccccc23)C(=O)N(CCCn2ccnc2)C(=O)N1Cc1ccc(Br)cc1` (stereo not drawn) belongs 0.16 µM. For `CC1(c2cccc3ccccc23)C(=O)N(CCCn2ccnc2)C(=O)N1Cc1cccc(Oc2ccccc2)c1` (stereo not drawn), the half-maximal inhibitory concentration (IC50) came out at 0.72 µM. To `COC(=O)[C@H](CCSC)NC(=O)CN1C(=O)N(CCc2cnc[nH]2)C(=O)C1(C)c1cccc2ccccc12` (stereo partly drawn) belongs 2500 µM; to `CSc1ccc(CN2C(=O)N(CCCn3ccnc3)C(=O)C2(C)c2cccc3ccccc23)cc1C#N` (stereo not drawn), 0.08 µM; to `CSCc1ccc(CN2C(=O)N(CCCn3ccnc3)C(=O)C2(C)c2cccc3ccccc23)cc1` (stereo not drawn), 0.21 µM. The molecule `CC1(c2cccc3ccccc23)C(=O)N(CCCn2ccnc2)C(=O)N1Cc1cccc(Cl)c1` (stereo not drawn) registered an IC50 of 0.24 µM. Consider `COC(=O)[C@H](CCSC)NC(=O)CN1C(=O)N(Cc2cnc[nH]2)C(=O)C1(C)c1cccc2ccccc12` (stereo partly drawn), for which the IC50 came out at 19000 µM. In turn, `CC1(c2cccc3ccccc23)C(=O)N(CCCn2ccnc2)C(=O)N1Cc1ccc(C#N)cc1` (stereo not drawn) returned a concentration for half-maximal inhibition (IC50) of 0.9 µM. As for `CC1(c2cccc3ccccc23)C(=O)N(CCCn2ccnc2)C(=O)N1Cc1ccccc1C#N` (stereo not drawn), the IC50 was determined as 1.3 µM. `CC1(c2cccc3ccccc23)C(=O)N(CCCn2ccnc2)C(=O)N1Cc1ccc(S(C)(=O)=O)cc1` (stereo not drawn) displayed an IC50 of 1.1 µM. Take `CC1(c2cccc3ccccc23)C(=O)N(CCCn2ccnc2)C(=O)N1Cc1cccc(Br)c1` (stereo not drawn): the midpoint of inhibition, the IC50, lay at 0.37 µM.

For `CCOC(=O)CN1C(=O)N(CCCc2cncn2C)C(=O)C1(C)c1cccc2ccccc12` (stereo not drawn), the midpoint of inhibition, the IC50, lay at 2.8 µM. As to `CSCC[C@H](NC(=O)CN1C(=O)N(CCc2cnc[nH]2)C(=O)C1(C)c1cccc2ccccc12)C(=O)O` (stereo partly drawn), the IC50 is 4.8 µM. As to `CC1(c2cccc3ccccc23)NC(=O)N(CCCn2ccnc2)C1=O` (stereo not drawn), inhibition was half-maximal at 7.7 µM (IC50). The molecule `COC(=O)[C@H](CCSC)NC(=O)CN1C(=O)N(CCCc2cnc[nH]2)C(=O)C1(C)c1cccc2ccccc12` (stereo partly drawn) returned an IC50 of 500 µM. As for `CCOC(=O)CN1C(=O)N(CCCn2ccnc2)C(=O)C1(C)c1cccc2ccccc12` (stereo not drawn), the IC50 came to 1 µM.

`CSCC[C@H](NC(=O)CN1C(=O)N(CCCc2c[nH]cn2)C(=O)C1(C)c1cccc2ccccc12)C(=O)O` (stereo partly drawn) returned a concentration for half-maximal inhibition (IC50) of 0.8 µM. To `CC1(c2cccc3ccccc23)C(=O)N(CCCn2ccnc2)C(=O)N1Cc1ccc(S(C)(=O)=O)c(C#N)c1` (stereo not drawn) belongs 0.73 µM.

For `CC1(c2cccc3ccccc23)C(=O)N(CCCn2ccnc2)C(=O)N1Cc1cccc(C#N)c1` (stereo not drawn), the concentration for half-maximal inhibition (IC50) turned out to be 0.09 µM.

Molecule `CC1(c2cccc3ccccc23)C(=O)N(CCCn2ccnc2)C(=O)N1Cc1ccc(CNS(C)(=O)=O)cc1` (stereo not drawn) had an IC50 of 0.35 µM. On to `CC1(c2cccc3ccccc23)C(=O)N(CCCn2ccnc2)C(=O)N1Cc1cccc(CNS(C)(=O)=O)c1` (stereo not drawn), for which the IC50 turned out to be 1.2 µM. Regarding `CC1(c2cccc3ccccc23)C(=O)N(CCCn2ccnc2)C(=O)N1Cc1ccc(Oc2ccccc2)cc1` (stereo not drawn), the IC50 is 0.75 µM. `CSc1ccc(CN2C(=O)N(CCCn3ccnc3)C(=O)C2(C)c2cccc3ccccc23)cc1` (stereo not drawn) had an IC50 of 0.7 µM. With `CC1(c2cccc3ccccc23)C(=O)N(CCCn2ccnc2)C(=O)N1Cc1cccc(C(F)(F)F)c1` (stereo not drawn), the IC50 was 1.7 µM.

The record behind these values is ChEMBL document CHEMBL1146930, “Hydantoin derivatives as non-peptidic inhibitors of Ras farnesyl transferase” (Bioorg Med Chem Lett, 2006).
